Reference: ChEMBL document CHEMBL5537193, “Multitargeting HDAC Inhibitors Containing a RAS/RAF Protein Interfering Unit” (J Med Chem, 2024)
Active and inactive are the calls of the source. The rule behind the calls is not given here.

Legend:
Histone deacetylase 8 = Histone deacetylase 8 (Homo sapiens, UniProt Q9BY41); assay: Inhibition of HDAC8 (unknown origin)
MV4-11 = assay: cells; settings: Homo sapiens, MV4-11, 72 h
Description: Cytotoxicity against human MV4-11 cells assessed as inhibition of cell growth incubated for 72 hrs by MTT assay

NCI-H1975 = assay: cells; settings: Homo sapiens, NCI-H1975, 72 h
Description: Cytotoxicity against human NCI-H1975 cells assessed as inhibition of cell growth incubated for 72 hrs by MTT assay

MCF7 = assay: cells; settings: Homo sapiens, MCF7, 72 h
Description: Cytotoxicity against human MCF7 cells assessed as inhibition of cell growth incubated for 72 hrs by MTT assay

L02 = assay: cells; settings: Homo sapiens, L02, 72 h
Description: Cytotoxicity against human L02 cells assessed as inhibition of cell growth incubated for 72 hrs by MTT assay

Histone deacetylase 11 = Histone deacetylase 11 (Homo sapiens, UniProt Q96DB2); assay: Inhibition of HDAC11 (unknown origin)
Histone deacetylase 2 = Histone deacetylase 2 (Homo sapiens, UniProt Q92769); assay: Inhibition of HDAC2 (unknown origin)
[1] = molecular target: Protein deacetylase HDAC6 (Homo sapiens, UniProt Q9UBN7); assay: Inhibition of HDAC6 (unknown origin)
PANC-1 [2] = assay: Induction of apoptosis in human PANC-1 cells assessed as increase in cleaved caspase-3 expression level at 2 uM incubated for 24 hrs by Western blot analysis; format: functional, cell-based
HT-29 [3] = assay: Antitumor activity against human HT-29 cells xenografted in BALB/c nude mouse assessed as tumor growth inhibition at 7.5 mg/kg, ip administered once a day for 24 days in presence of SAHA relative to control; format: functional; settings: HT-29, 576 h, time 24 day, read-out: TGI
Histone deacetylase 5 = Histone deacetylase 5 (Homo sapiens, UniProt Q9UQL6); assay: Inhibition of HDAC5 (unknown origin)
SGC-7901 = assay: cells; settings: Homo sapiens, SGC-7901, 72 h
Description: Cytotoxicity against human SGC-7901 cells assessed as inhibition of cell growth incubated for 72 hrs by MTT assay

PANC-1 [4] = assay: Cell cycle arrest in human PANC-1 cells assessed as accumulation of cells at GO-G1 phase at 2 uM incubated for 24 hrs by PI/RNase staining based flow cytometric analysis; format: functional
Histone deacetylase 7 = Histone deacetylase 7 (Homo sapiens, UniProt Q8WUI4); assay: Inhibition of HDAC7 (unknown origin)
PANC-1 [5] = assay: cells; settings: Homo sapiens, PANC-1, 72 h
Description: Cytotoxicity against human PANC-1 cells assessed as inhibition of cell growth incubated for 72 hrs by MTT assay

HT-29 [6] = assay: Induction of apoptosis in human HT-29 cells assessed as apoptotic ratio at 2 uM incubated for 24 hrs by flow cytometric analysis; format: functional
Histone deacetylase 4 = Histone deacetylase 4 (Homo sapiens, UniProt P56524); assay: Inhibition of HDAC4 (unknown origin)
A-431 = assay: cells; settings: Homo sapiens, A-431, 72 h
Description: Cytotoxicity against human A-431 cells assessed as inhibition of cell growth incubated for 72 hrs by MTT assay

PANC-1 [7] = assay: Induction of apoptosis in human PANC-1 cells assessed as increase in cleaved PARP expression level at 2 uM incubated for 24 hrs by Western blot analysis; format: functional, cell-based
PANC-1 [8] = assay: Induction of apoptosis in human PANC-1 cells assessed as increase in Cytochrome C expression level at 2 uM incubated for 24 hrs by Western blot analysis; format: functional, cell-based
HepG2 = assay: cells; settings: Homo sapiens, HepG2, 72 h
Description: Cytotoxicity against human HepG2 cells assessed as inhibition of cell growth incubated for 72 hrs by MTT assay

[9] = molecular target: Polyamine deacetylase HDAC10 (Homo sapiens, UniProt Q969S8); assay: Inhibition of HDAC10 (unknown origin)
Histone deacetylase 3 = Histone deacetylase 3 (Homo sapiens, UniProt O15379); assay: Inhibition of HDAC3 (unknown origin)
Histone deacetylase 1 = Histone deacetylase 1 (Homo sapiens, UniProt Q13547); assay: Inhibition of HDAC1 (unknown origin)
K562 = assay: cells; settings: Homo sapiens, K562, 72 h
Description: Cytotoxicity against human K562 cells assessed as inhibition of cell growth incubated for 72 hrs by MTT assay

PANC-1 [10] = assay: Induction of apoptosis in human PANC-1 cells assessed as increase in cleaved caspase-9 expression level at 2 uM incubated for 24 hrs by Western blot analysis; format: functional, cell-based
PANC-1 [11] = assay: Induction of apoptosis in human PANC-1 cells assessed as apoptotic cells at 2 uM incubated for 24 hrs by flow cytometric analysis relative to control; format: functional
HT-29 [12] = assay: Antitumor activity against human HT-29 cells xenografted in BALB/c nude mouse assessed as tumor growth inhibition at 7.5 mg/kg, ip administered once a day for 24 days relative to control; format: functional; settings: HT-29, 576 h, time 24 day, read-out: TGI
PANC-1 [13] = assay: Induction of apoptosis in human PANC-1 cells assessed as increase in Bax expression at 2 uM incubated for 24 hrs by Western blot analysis; format: functional, cell-based
Histone deacetylase 9 = Histone deacetylase 9 (Homo sapiens, UniProt Q9UKV0); assay: Inhibition of HDAC9 (unknown origin)
HT-29 [14] = assay: cells; settings: Homo sapiens, HT-29, 72 h
Description: Cytotoxicity against human HT-29 cells assessed as inhibition of cell growth incubated for 72 hrs by MTT assay

A549 = assay: cells; settings: Homo sapiens, A549, 72 h
Description: Cytotoxicity against human A549 cells assessed as inhibition of cell growth incubated for 72 hrs by MTT assay

Sequence of Histone deacetylase 5 (Q9UQL6 whole entry): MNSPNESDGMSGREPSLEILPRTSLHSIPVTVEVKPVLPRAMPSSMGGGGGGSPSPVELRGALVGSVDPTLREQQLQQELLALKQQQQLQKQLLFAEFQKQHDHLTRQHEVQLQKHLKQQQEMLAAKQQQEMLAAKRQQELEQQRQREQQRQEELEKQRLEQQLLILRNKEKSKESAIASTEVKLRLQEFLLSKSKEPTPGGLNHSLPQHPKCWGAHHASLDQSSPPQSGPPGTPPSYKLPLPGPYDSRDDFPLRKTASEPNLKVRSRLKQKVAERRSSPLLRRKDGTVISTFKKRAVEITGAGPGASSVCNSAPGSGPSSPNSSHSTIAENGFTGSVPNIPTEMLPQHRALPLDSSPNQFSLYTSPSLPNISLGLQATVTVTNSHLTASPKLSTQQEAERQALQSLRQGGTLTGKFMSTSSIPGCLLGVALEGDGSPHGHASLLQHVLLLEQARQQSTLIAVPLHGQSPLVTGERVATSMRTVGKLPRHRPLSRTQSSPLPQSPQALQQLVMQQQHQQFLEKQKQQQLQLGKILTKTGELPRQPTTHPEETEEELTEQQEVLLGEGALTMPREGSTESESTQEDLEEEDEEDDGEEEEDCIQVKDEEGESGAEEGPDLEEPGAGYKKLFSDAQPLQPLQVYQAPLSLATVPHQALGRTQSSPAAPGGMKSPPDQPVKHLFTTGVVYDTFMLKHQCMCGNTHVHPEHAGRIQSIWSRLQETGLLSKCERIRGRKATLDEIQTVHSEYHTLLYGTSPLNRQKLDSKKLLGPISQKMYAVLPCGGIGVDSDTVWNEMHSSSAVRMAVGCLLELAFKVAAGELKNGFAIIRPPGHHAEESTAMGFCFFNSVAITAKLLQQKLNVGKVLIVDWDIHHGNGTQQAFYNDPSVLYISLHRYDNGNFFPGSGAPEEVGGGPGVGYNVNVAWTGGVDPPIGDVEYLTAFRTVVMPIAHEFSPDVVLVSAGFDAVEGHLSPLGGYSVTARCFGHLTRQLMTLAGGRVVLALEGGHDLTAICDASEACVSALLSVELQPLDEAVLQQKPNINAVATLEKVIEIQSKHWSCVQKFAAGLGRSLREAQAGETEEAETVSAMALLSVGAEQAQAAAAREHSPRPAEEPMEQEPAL
Sequence of Histone deacetylase 2 (Q92769 whole entry): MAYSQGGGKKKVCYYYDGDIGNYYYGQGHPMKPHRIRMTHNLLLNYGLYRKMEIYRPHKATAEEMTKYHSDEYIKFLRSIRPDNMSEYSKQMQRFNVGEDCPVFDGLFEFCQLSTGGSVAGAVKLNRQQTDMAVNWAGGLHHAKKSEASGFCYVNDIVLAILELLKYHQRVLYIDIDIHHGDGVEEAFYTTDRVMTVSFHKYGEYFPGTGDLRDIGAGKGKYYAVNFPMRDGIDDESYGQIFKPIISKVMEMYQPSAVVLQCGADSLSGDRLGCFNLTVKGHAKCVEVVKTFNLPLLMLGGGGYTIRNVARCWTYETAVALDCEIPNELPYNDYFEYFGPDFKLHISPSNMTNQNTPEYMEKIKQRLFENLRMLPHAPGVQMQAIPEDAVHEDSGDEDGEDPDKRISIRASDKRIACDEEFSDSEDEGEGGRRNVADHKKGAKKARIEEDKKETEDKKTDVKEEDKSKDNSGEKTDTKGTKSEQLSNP
Sequence of Histone deacetylase 11 (Q96DB2 whole entry): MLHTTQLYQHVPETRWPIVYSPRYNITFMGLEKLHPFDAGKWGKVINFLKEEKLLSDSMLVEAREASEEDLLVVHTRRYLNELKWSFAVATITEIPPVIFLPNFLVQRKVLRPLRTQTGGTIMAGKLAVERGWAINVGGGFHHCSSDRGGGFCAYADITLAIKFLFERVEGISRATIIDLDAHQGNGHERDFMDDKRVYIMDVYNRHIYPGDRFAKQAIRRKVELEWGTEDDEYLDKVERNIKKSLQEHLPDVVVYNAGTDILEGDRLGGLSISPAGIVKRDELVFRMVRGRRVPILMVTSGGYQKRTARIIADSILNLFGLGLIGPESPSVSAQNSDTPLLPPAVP
Sequence of Histone deacetylase 3 (O15379 whole entry): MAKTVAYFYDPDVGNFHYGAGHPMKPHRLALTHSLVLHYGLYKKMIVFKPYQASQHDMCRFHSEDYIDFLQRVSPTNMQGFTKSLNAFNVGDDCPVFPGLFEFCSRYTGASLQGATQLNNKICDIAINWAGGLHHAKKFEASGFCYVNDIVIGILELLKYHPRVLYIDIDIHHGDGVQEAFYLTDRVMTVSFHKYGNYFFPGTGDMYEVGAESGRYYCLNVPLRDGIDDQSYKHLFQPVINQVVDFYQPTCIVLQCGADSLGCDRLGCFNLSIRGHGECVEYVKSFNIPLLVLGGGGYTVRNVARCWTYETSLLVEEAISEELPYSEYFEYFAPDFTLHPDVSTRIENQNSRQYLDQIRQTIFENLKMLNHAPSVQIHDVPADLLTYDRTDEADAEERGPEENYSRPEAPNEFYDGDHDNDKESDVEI
Sequence of Histone deacetylase 8 (Q9BY41 whole entry): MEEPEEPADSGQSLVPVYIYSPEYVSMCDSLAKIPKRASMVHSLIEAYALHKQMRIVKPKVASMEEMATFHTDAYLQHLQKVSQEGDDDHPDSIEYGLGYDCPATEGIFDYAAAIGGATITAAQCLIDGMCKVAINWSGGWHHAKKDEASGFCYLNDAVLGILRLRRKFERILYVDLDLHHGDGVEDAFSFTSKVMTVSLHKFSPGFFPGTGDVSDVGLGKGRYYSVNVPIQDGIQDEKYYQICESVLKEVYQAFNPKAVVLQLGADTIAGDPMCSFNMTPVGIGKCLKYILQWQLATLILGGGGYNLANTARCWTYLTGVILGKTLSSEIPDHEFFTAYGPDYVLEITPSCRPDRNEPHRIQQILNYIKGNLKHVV
Sequence of Protein deacetylase HDAC6 (Q9UBN7 whole entry): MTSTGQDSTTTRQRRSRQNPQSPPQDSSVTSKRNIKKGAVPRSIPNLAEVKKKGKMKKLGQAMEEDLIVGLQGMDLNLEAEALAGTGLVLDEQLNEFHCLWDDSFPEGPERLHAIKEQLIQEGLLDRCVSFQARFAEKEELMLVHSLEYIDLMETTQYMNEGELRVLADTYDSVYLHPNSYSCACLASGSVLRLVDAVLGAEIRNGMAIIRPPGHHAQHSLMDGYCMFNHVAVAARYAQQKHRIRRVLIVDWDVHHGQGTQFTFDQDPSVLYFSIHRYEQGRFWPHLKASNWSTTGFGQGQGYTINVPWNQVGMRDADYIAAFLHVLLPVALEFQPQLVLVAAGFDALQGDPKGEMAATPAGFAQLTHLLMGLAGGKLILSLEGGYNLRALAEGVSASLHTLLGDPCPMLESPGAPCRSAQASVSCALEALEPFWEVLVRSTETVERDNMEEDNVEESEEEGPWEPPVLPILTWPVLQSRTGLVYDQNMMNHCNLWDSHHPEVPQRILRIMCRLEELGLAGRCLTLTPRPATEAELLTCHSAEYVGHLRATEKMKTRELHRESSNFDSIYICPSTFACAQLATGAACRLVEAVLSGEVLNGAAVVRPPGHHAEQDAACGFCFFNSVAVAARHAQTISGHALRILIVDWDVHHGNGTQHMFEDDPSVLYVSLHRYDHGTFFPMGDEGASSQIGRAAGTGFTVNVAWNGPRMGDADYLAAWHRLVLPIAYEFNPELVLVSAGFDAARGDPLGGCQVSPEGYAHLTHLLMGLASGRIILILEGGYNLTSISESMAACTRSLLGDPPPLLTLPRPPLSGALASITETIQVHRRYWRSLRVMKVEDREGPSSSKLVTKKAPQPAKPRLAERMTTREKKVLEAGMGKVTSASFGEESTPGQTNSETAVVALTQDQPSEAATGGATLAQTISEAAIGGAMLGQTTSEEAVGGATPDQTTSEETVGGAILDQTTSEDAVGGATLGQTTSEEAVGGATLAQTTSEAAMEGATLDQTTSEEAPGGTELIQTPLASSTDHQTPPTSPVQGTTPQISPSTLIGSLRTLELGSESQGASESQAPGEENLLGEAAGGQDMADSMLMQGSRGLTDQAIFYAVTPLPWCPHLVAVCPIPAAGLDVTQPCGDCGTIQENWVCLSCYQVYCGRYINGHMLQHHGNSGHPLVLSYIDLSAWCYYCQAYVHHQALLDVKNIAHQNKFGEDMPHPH
Sequence of Polyamine deacetylase HDAC10 (Q969S8 whole entry): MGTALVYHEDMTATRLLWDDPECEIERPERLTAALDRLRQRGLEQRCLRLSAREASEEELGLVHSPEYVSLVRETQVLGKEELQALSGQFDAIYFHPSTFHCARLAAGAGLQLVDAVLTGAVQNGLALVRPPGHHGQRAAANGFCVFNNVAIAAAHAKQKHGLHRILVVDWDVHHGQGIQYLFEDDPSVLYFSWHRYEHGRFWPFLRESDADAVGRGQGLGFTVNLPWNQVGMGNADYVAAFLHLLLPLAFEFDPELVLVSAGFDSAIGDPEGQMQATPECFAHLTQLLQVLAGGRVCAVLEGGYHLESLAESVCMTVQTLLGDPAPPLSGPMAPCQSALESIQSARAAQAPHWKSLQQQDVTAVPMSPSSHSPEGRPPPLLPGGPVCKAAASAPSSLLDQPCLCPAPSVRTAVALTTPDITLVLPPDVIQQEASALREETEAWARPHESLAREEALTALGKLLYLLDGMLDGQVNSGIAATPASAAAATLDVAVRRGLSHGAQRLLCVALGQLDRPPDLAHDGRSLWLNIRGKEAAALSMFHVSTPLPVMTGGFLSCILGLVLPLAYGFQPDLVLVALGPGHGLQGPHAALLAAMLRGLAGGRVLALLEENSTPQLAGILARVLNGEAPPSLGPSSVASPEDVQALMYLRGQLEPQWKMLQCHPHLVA

IC50 (Histone deacetylase 8): > 10 µM | IC50 (MV4-11): 1.15 µM | IC50 (NCI-H1975): 0.23 µM | IC50 (MCF7): 0.26 µM | IC50 (Histone deacetylase 11): > 10 µM | IC50 (Histone deacetylase 2): > 10 µM | IC50 [1]: > 10 µM | IC50 (Histone deacetylase 5): > 10 µM | IC50 (SGC-7901): 0.25 µM | IC50 (Histone deacetylase 7): > 10 µM | IC50 (PANC-1 [5]): 0.26 µM | IC50 (Histone deacetylase 4): > 10 µM | IC50 (A-431): 0.36 µM | IC50 (HepG2): 1.34 µM | IC50 [9]: > 10 µM | IC50 (Histone deacetylase 3): > 10 µM | IC50 (Histone deacetylase 1): > 10 µM | IC50 (K562): 0.15 µM | IC50 (Histone deacetylase 9): > 10 µM | IC50 (HT-29 [14]): 0.16 µM | IC50 (A549): 0.37 µM
Compound: COc1cc(OC)c(/C=C/S(=O)(=O)Cc2ccc(OC)c(NCC(=O)O)c2)c(OC)c1 [RIGOSERTIB]
IC50 (L02): > 40 µM | Activity (PANC-1 [2]): Active | inhibition in vivo at 7.5 mg/kg (HT-29 [3]): 77.9% | Activity (PANC-1 [4]): Active | Activity (HT-29 [6]): 34.8% | Activity (PANC-1 [7]): Active | Activity (PANC-1 [8]): Active | Activity (PANC-1 [10]): Active | Activity (PANC-1 [11]): 41.4% | inhibition in vivo at 7.5 mg/kg (HT-29 [12]): 46% | Activity (PANC-1 [13]): Active
